One substance from patent US9096835B2, “DNA polymerase” (Medical Research Council, priority 2003, dated 2015) can be followed below.

For the experiment, the system named is template containing 5-Nitroindole. Kind of experiment: Primer extension opposite 5-nitroindole. Format: biochemical. The settings on record: 50° C., cell lysate, identical conditions as 4D11 and 5D4; data not shown. The protocol:
50 pmol of ^32P-labelled primer and 100 pmol of template in a volume of 44 μl were annealed in 1× Taq buffer. 4D11 or 5D4 polymerase as cell lysate (6 μl) was added and reactions were incubated at 50° C. for 15 minutes followed by addition of one dNTP (1 μl in total volume of 50 μl, final dNTP concentration 40 μM). 8 μl samples were taken at various time points and added to 8 μl stop solution (7M urea, 100 mM EDTA containing xylene cyanol F). At the end of the time course the remaining 3 dNTPs were added (final concentration each dNTP 40 μM) and reactions incubated at 50° C. for a further 30 minutes. Reaction samples were electrophoretically separated using 20% polyacrylamide gels at 25 W for 4 hours. The resultant gels were dried and scanned using a phosphorimager (Molecular Dynamics). Data was processed using the program ImageQuant (Molecular Dynamics).

With “wtTaq: Thermus aquaticus (Taq) wild type DNA polymerase [reference compound]”, the “extension opposite 5-nitroindole” value is listed as “almost undetectable extension reactions”.
